The source of these data is patent publication US8993760B2, “Rock inhibitors and uses thereof” (University of South Florida, priority 2006, dated 2015).

Where two headings read alike, the source gives them in different places.

This test concerns the target Rho-kinase (ROCK1) (Homo sapiens, UniProt Q13464). The test can be described thus: Rho-kinase (ROCK1) inhibition. Type of test: biochemical. The conditions noted are these: for % Inhibition / Inhibition: concentration not given.
The mark [1] stands for this setting: Table 2, first number of the cell.
The mark [2] stands for this setting: read-out: IC50, inhibitory activity against Rho-kinase activity.
Setting [3] is: Table 3, first number of the cell.
[4] abbreviates: Table 1, first number of the cell.

Chain of Rho-kinase (ROCK1) (Q13464 whole entry, species assumed): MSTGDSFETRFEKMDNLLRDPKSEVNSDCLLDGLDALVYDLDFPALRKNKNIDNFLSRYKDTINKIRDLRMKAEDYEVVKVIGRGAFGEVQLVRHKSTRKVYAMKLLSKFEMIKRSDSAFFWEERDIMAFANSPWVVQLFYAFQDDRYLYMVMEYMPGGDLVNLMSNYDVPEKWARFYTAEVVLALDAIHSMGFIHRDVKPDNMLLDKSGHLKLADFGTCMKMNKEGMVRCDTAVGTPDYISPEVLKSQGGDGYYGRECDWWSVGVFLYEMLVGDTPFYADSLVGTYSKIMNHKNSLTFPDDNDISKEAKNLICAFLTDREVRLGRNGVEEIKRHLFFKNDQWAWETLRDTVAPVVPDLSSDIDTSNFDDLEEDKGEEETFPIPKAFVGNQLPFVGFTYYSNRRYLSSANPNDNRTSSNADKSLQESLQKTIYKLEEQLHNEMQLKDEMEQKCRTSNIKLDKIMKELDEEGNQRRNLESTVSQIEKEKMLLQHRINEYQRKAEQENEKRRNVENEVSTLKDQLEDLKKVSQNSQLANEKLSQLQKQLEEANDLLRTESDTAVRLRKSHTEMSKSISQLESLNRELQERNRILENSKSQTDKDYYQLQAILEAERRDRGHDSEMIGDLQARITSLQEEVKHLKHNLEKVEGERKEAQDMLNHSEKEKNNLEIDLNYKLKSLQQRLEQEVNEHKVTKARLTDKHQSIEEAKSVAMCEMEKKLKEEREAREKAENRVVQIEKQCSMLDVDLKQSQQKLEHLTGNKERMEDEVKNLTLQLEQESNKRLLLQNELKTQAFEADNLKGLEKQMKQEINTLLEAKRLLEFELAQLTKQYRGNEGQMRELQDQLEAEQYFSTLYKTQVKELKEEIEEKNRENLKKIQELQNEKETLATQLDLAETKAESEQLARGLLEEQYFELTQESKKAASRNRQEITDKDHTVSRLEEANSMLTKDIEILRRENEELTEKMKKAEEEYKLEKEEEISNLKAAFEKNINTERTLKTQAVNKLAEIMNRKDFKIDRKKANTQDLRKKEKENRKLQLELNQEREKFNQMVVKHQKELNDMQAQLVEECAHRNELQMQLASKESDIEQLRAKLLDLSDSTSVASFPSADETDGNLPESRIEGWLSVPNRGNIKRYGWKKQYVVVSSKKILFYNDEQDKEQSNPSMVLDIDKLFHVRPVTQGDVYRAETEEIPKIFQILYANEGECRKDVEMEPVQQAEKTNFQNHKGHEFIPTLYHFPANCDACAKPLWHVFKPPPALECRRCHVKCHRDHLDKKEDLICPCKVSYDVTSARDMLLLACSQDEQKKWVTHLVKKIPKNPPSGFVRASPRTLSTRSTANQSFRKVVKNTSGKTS

For orientation: % Inhibition means the share of the control response that was lost under treatment. Higher therefore signals a strong effect. Consider `CSCC[C@@H]1NC(=O)CN(Cc2ccncc2)C1=O` [Compound 1b], for which the “% Inhibition (@ 100 μM)” value (Table 2) was 1.96%. Besides, under setting [1], the “% Inhibition” value was 25%.
For the compound `O=C1CN(Cc2ccncc2)C(=O)[C@H](CO)N1` [Compound 1d], the “% Inhibition (@ 100 μM)” value (Table 2) came out at 1.73%. Under setting [1], the “% Inhibition” value is on record as 45%.
Turning to `O=C1CN(Cc2ccncc2)C(=O)[C@H](Cc2ccccc2)N1` [Compound 1e], the “% Inhibition” value under setting [1] was approximately 20%.
`CSCC[C@H]1CN(Cc2ccncc2)CCN1` [Compound 2b]: for the setting “Table 2”, the “% Inhibition (@ 100 μM)” value was 4.35%. Besides, the “% Inhibition” value under setting [1] came out at 36%.
In the same order, the values of `OC[C@H]1CN(Cc2ccncc2)CCN1` [Compound 2d] are 3.73% and 20%.
As to `CSCC[C@@H]1NC(=O)CN(Cc2ccccc2)C1=O` [Compound 3b], the “% Inhibition” value under setting [1] was determined as 78%.
Regarding `O=C1CN(Cc2ccccc2)C(=O)[C@H](Cc2ccccc2)N1` [Compound 3e], the “% Inhibition (@ 100 μM)” value (Table 2) was 0.75%. In addition, the “% Inhibition” value under setting [1] is recorded as 61%.
`CSCC[C@H]1CN(Cc2ccccc2)CCN1` [Compound 4b]: the “% Inhibition (@ 100 μM)” value (Table 2) was determined as 0.53%. Moreover, the “% Inhibition” value under setting [1] stood at 60%.
In the same order, the values of `CSCC[C@@H]1NC(=O)CN(Cc2cccc3ccccc23)C1=O` [Compound 5b] are −1.48% and 93%.
As to `O=C1CN(Cc2cccc3ccccc23)C(=O)[C@H](Cc2ccccc2)N1` [Compound 5e], the “% Inhibition (@ 100 μM)” value (Table 2) was −1.87%. Further, under setting [1], the “% Inhibition” value was 71%.
For `CSCC[C@H]1CN(Cc2cccc3ccccc23)CCN1` [Compound 6b], the “% Inhibition (@ 100 μM)” value (Table 2) was found to be 11.9%. Besides, the “% Inhibition” value under setting [1] was 62%.
Consider `c1ccc(C[C@H]2CN(Cc3cccc4ccccc34)CCN2)cc1` [Compound 6e, N-Naphtylmethyl-3-benzyl piperazine], for which the “inhibitory activity / disruption of Rho-kinase activity (in words)” value (shortened to “inhibitory activity / disruption”) is given as “particular effectiveness”. The “% Inhibition (@ 100 μM)” value (Table 2) came out at 20.4%. Moreover, the “% Inhibition” value under setting [1] is 75%.
On to `CCOC(=O)C1CCN(C(=O)Nc2ccncc2)CC1` [Compound 7], for which, where the note is “Table 4”, the “Inhibition (@ 100 μM)” value is recorded as 6.29 (@ 100 μM).
Turning to `Cl.O=C(O)C1CCN(C(=O)Nc2ccncc2)CC1` [Compound 8], the “Inhibition (@ 100 μM)” value (Table 4) is 1.59 (@ 100 μM).
Still for that read-out and setting: under `O=C(Nc1ccncc1)N1CCCN(Cc2ccccc2)CC1` [Compound 9] stands 21.0 (@ 100 μM); under `O=C(Nc1ccncc1)N1CCCNCC1` [Compound 10], 16.7 (@ 100 μM); under `O=C(Nc1ccncc1)N1CCN[C@@H](COCc2ccccc2)C1` [Compound 12a], 9.58.
The IC50 is the concentration that gives 50% inhibition. `O=C(Nc1ccncc1)N1CCN[C@@H](Cc2ccccc2)C1` [Compound 12b]: the “inhibitory activity / disruption” value is reported as “potent disrupters of active Rho-kinase”. Also, the half-maximal inhibitory concentration (IC50) under setting [2] was 14 µM.
For the compound `O=C(Nc1ccncc1)NC1CCN(Cc2ccccc2)CC1` [Compound 14a], the half-maximal inhibitory concentration (IC50) (Table 4, read-out: IC50) amounted to 90 µM.
Same read-out and setting: in the case of `O=C(Nc1ccncc1)OC1CCN(Cc2ccccc2)CC1` [Compound 14b] it was 56 µM; in that of `O=C(Nc1ccncc1)NC1CCNCC1` [Compound 15a], 55 µM.
Take `O=C(Nc1ccncc1)OC1CCNCC1` [Compound 16b]: the “inhibitory activity / disruption” value is given as “potent disrupters of active Rho-kinase”. Besides, the half-inhibitory concentration (IC50) under setting [2] was 7.5 µM.
With `CC(C)(C)OC(=O)N1CCN(C(=O)c2cccc3cnccc23)C[C@@H]1Cc1ccccc1` [IP-III-153], the Inhibition under setting [3] was 91.
On the same count and under the same terms, in the case of `O=C(c1cccc2cnccc12)N1CCN[C@@H](Cc2ccccc2)C1` [IP-IV-15] it was 70.
Regarding `c1ccc(C[C@H]2CN(Cc3cccc4cnccc34)CCN2)cc1` [IP-IV-29], under setting [3], the Inhibition came out at 16 IC50 = 16 μM. Moreover, the IC50 (Table 3, read-out: IC50) was found to be 16 µM.
For `CC(C)(C)OC(=O)N1CCN(c2ccnc3ccccc23)C[C@@H]1Cc1ccccc1` [IP-IV-33], under setting [4], the “% Inhibition” value worked out at 47%.
As to `CC(C)(C)OC(=O)N1CCN(c2ccnc3ccccc23)C[C@@H]1COCc1ccccc1` [IP-IV-35], under setting [4], the “% Inhibition” value turned out to be 54%.
Turning to `CCOC(=O)C1CCN(CC(=O)Nc2ccncc2)CC1` [IP-IV-39], the “% Inhibition (@ 100 μM)” value (Table 5) is given as −1.46 (@ 100 μM) %.
As to `CC(C)(C)OC(=O)N1CCN(c2cccc3cnccc23)C[C@@H]1Cc1ccccc1` [IP-IV-41], the “inhibitory activity / disruption” value is listed as “potent disrupters of active Rho-kinase”. Also, the “% Inhibition (@ 100 μM)” value (Table 1) was determined as 9.71%. For the same compound, the “% Inhibition” value under setting [4] is reported as 83%.
Consider `CC(C)(C)OC(=O)N1CCN(c2cccc3cnccc23)C[C@@H]1COCc1ccccc1` [IP-IV-43], for which the “% Inhibition (@ 100 μM)” value (Table 1) was determined as 4.73%. Moreover, the “% Inhibition” value under setting [4] is 49%.
Turning to `c1ccc(C[C@H]2CN(c3ccnc4ccccc34)CCN2)cc1` [IP-IV-47], the “% Inhibition” value under setting [4] turned out to be 43%.
For `c1ccc(COC[C@H]2CN(c3ccnc4ccccc34)CCN2)cc1` [IP-IV-49], the “inhibitory activity / disruption” value is on record as “potent disrupters of active Rho-kinase”. In addition, the “% Inhibition” value under setting [4] was determined as 85%.
As to `c1ccc([C@H]2CN(c3cccc4cnccc34)CCN2)cc1` [IP-IV-67], the “% Inhibition” value under setting [4] came out at 67%. Besides, the IC50 (Table 1, read-out: IC50) turned out to be 3.5 µM.
For `O=C(CN1CCCN(Cc2ccccc2)CC1)Nc1ccncc1` [IP-IV-73], the “% Inhibition (@ 100 μM)” value (Table 5) is recorded as 13.31 (@ 100 μM) %.
The same measure, in the same setting: in the case of `O=C(CN1CCCNCC1)Nc1ccncc1` [IP-IV-81] it was 30.61 (@ 100 μM) %.
Take `CC(C)[C@H]1CN(C(=O)c2cccc3cnccc23)CCN1C(=O)OC(C)(C)C` [IP-IV-89]: the Inhibition under setting [3] turned out to be 82.
The same measure, in the same setting: in the case of `CC(C)[C@H]1CN(C(=O)c2cccc3cnccc23)CCN1` [IP-IV-103] it was 81.
`O=C(Nc1cccc2cnccc12)N1CCCN(Cc2ccccc2)CC1` [IP-IV-105]: the “% Inhibition (@ 100 μM)” value (Table 5) is −0.85 (@ 100 μM) %.
For the compound `CC(C)[C@H]1CN(Cc2cccc3cnccc23)CCN1` [IP-IV-107], the Inhibition under setting [3] is recorded as 29. In addition, the half-maximal inhibitory concentration (IC50) (Table 3, read-out: IC50) amounted to 22 µM.
Turning to `c1ccc(C[C@H]2CN(Cc3cccc4ncccc34)CCN2)cc1` [IP-IV-109 R = H2], where the note is “Table 3, read-out: IC50”, the IC50 came out at 67 µM.
With `O=C(c1cccc2ncccc12)N1CCNC(Cc2ccccc2)C1` (stereo not drawn) [IP-IV-109 R = O], for the setting “Table 3”, the “Inhibition (@ 100 μM)” value is 1.55 (@ 100 μM).
`O=C(Nc1cccc2cnccc12)OC1CCN(Cc2ccccc2)CC1` [IP-IV-115]: the “% Inhibition” value (Table 5) is reported as 50%.
As for `O=C(Nc1cccc2cnccc12)NC1CCCCCC1` [IP-IV-129], the “% Inhibition” value (Table 5) is on record as 50%.
